Results on 14 compounds are retold here after ChEMBL document CHEMBL1201862, “PubChem BioAssay data set” (2004).

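96-well plates; 48 h exposure; 5 concentrations. Endpoints by linear interpolation between flanking doses. Not reached: highest tested concentration assigned. At the GI50, growth is halved.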 Activity calls are given as the source filed them. No stated cut-off is given here; in the data, active = GI50 up to about 1.1 µM and inactive = higher.

Holding throughout (test): DTP human tumour cell line panel, 48 h
The test system of assay [1] is IGROV-1.
Assay [2] deals with SN12C.
Assay [3] deals with COLO 205.
For assay [4], the system named is EKVX.
Assay [5] relates to CCRF-CEM.
The subject of assay [6] is HCT-15.
The subject of assay [7] is UACC-257.
For assay [8], the system named is UO-31.
The subject of assay [9] is SR.
In assay [10] the test system is HCT-116.
The subject of assay [11] is 786-0.
Assay [12] deals with LOX IMVI.
For assay [13], the system named is SNB-19.
The subject of assay [14] is OVCAR-4.
Assay [15] deals with A498.
Assay [16] concerns CAKI-1.

Take `COC1(OC)c2ccccc2C2(O)c3ccccc3C(=O)C12` (configuration not stated): the GI50 in assay [1] is 18.2 µM (inactive); in [2] it was 60.8 µM (inactive); in assay [3], 13.4 µM (inactive); in assay [4], 48.8 µM (inactive); in assay [5], 22.5 µM (inactive); in assay [6], 25.3 µM. Further, the GI50 is 17.9 µM (inactive) in assay [7]; 16.4 µM (inactive) in [8]; 22.9 µM (inactive) in [9]; 70.8 µM (inactive) in [10]; 52.6 µM (inactive) in [11]; 44.7 µM (inactive) in assay [12]. In [13], the GI50 was 74.5 µM (inactive).
For `CC1=NN2C(c3ccc(C)cc3)=CSC2=NC(C)(C)C1`, the GI50 in assay [1], in assay [14], in assay [2], in assay [3], in assay [4] and in assay [5] was > 100 µM (inactive) each time. The 50% growth inhibitory concentration (GI50) in assay [6] was more than 100 µM; in [15], > 100 µM (inactive); in assay [7], > 100 µM (inactive); in assay [8] it was > 100 µM (inactive); in assay [10], > 100 µM (inactive); in assay [11], > 100 µM (inactive). Also, the GI50 in [12] and in assay [13] was > 100 µM (inactive) in each case.
Turning to `CC(=O)NNc1nc(C)c(C(=O)NNC(=O)C(=O)Nc2ccc(Cl)c([N+](=O)[O-])c2)s1`, the GI50 in [1] was > 100 µM (inactive); in assay [14], 34.4 µM (inactive); in assay [2] it was 71.8 µM (inactive); in [3] it was > 100 µM (inactive); in assay [4], > 100 µM (inactive); in assay [5] it was 21.9 µM (inactive). In addition, the GI50 is > 100 µM (inactive) in [16]; 49.3 µM in assay [6]; 37.4 µM (inactive) in assay [7]; > 100 µM (inactive) in assay [8]; 35.1 µM (inactive) in [9]; 85.3 µM (inactive) in assay [10]. Further, the GI50 in assay [11] is 50 µM (inactive); in [12] it was 31.3 µM (inactive); in [13], > 100 µM (inactive).
On to `Nc1ccc(C(=O)N/C(=C\c2ccc3c(c2)OCO3)c2nc3ccc4c(c3[nH]2)C(=O)c2ccccc2C4=O)cc1`, for which the GI50 in assay [1] is 17.5 µM (inactive); in [14], 50.5 µM (inactive); in assay [2] it was 30.1 µM (inactive); in assay [3], 52.6 µM (inactive); in [4], 31.8 µM (inactive); in assay [5], 2.26 µM (inactive). Moreover, the GI50 in assay [16] was 14.7 µM (inactive); in assay [6], 42.2 µM; in assay [15] it was 14.4 µM (inactive); in [7], 58.7 µM (inactive); in assay [8], 2.64 µM (inactive); in assay [10] it was 23.8 µM (inactive). For the same compound, the GI50 in assay [11] was 21.2 µM (inactive); in assay [12], 26.1 µM (inactive); in assay [13], 30 µM (inactive).
Regarding `O=C(Nc1ccccc1)c1ccc(Cl)c([N+](=O)[O-])c1`, the GI50 in assay [1] was 14.8 µM (inactive); in assay [2] it was 5.21 µM (inactive); in assay [3], 28.2 µM (inactive); in assay [4] it was 28.4 µM (inactive); in [5] it was 4.14 µM (inactive); in assay [16], 6.05 µM (inactive). The concentration for 50% growth inhibition (GI50) in [6] was 7.24 µM; in assay [15], 21.8 µM (inactive); in assay [7], 15.4 µM (inactive); in assay [8] it was 36.1 µM (inactive); in assay [11], 4.85 µM (inactive); in assay [12] it was 4.46 µM (inactive). For the same compound, in assay [13], the GI50 is 15.5 µM (inactive).
For the compound `CC(NC(=O)C(=O)N/N=C1\C[C@@H](c2ccccc2)Nc2ccccc21)c1ccccc1` (some centres not stated), the GI50 in assay [14] is 29.3 µM (inactive); in assay [2], 1.06 µM (active); in [3], 48.2 µM (inactive); in [4], 17.1 µM (inactive); in assay [16], > 100 µM (inactive); in [7], 0.382 µM (active). Further, the GI50 in [8] is 33 µM (inactive); in [10], > 100 µM (inactive); in assay [11], > 100 µM (inactive); in assay [12], > 100 µM (inactive); in assay [13], > 100 µM (inactive).
On to `NCc1c(C(N)=O)ncn1Cc1ccccc1`, for which the GI50 in assay [1], in [14], in assay [2], in assay [3], in assay [4] and in [5] was > 100 µM (inactive) in each case. The GI50 in assay [16] is > 100 µM (inactive); in assay [6] it was more than 100 µM; in assay [15] it was > 100 µM (inactive); in assay [7] it was > 100 µM (inactive); in [10] it was > 100 µM (inactive); in assay [11], > 100 µM (inactive). Moreover, the GI50 in assay [12] and in assay [13] was > 100 µM (inactive) throughout.
On to `CC(C)(C)c1cc(O)c2c(c1O)C(=O)CCC2`, for which the GI50 in [1] is 40.7 µM (inactive); in assay [14], 30.2 µM (inactive); in assay [2], 41.8 µM (inactive); in assay [3] it was 73.8 µM (inactive); in assay [4] it was 54.8 µM (inactive); in assay [5], 35.2 µM (inactive). Further, the GI50 in assay [16] is 22.5 µM (inactive); in assay [6], 40.8 µM; in [15], 40.6 µM (inactive); in [7], 29.4 µM (inactive); in [10] it was 31.7 µM (inactive); in [11], 32.1 µM (inactive). Besides, the GI50 in assay [12] was 28.4 µM (inactive); in assay [13], 32.7 µM (inactive).
For the compound `CC(=O)NNc1nc(C)c(C(/C=C/c2ccc(Cl)cc2)=N/NC(=O)C[N+](C)(C)C)s1`, the GI50 in assay [1], in [14], in assay [3], in assay [4], in [5] and in [16] was > 100 µM (inactive) throughout. Also, the concentration for 50% growth inhibition (GI50) in assay [6] is more than 100 µM; in [15], > 100 µM (inactive); in assay [7] it was > 100 µM (inactive); in assay [8] it was > 100 µM (inactive); in assay [10], > 100 µM (inactive); in [11] it was > 100 µM (inactive). Besides, the GI50 in [12] and in [13] was > 100 µM (inactive) in each case.
On to `Nc1nc(N)c(-c2ccccc2)c(C(=O)Nc2nccs2)n1`, for which the GI50 in assay [1], in assay [14], in assay [2], in assay [3], in [4] and in assay [5] was > 100 µM (inactive) in each case. The GI50 in assay [16] was > 100 µM (inactive); in assay [6], more than 100 µM; in [7] it was > 100 µM (inactive); in assay [8], > 100 µM (inactive); in assay [10], > 100 µM (inactive); in assay [11] it was > 100 µM (inactive). Also, the GI50 in [12] and in assay [13] was > 100 µM (inactive) throughout.
With `Cc1ccc(Nc2nc(C)c(C(/C=C/c3ccc4c(c3)OCO4)=N/Nc3ccc([N+](=O)[O-])cc3[N+](=O)[O-])s2)c([N+](=O)[O-])c1`, the GI50 in [1] is 62.7 µM (inactive); in [14] it was 56.6 µM (inactive); in assay [2], 28 µM (inactive); in assay [3], 56.5 µM (inactive); in assay [4], 24.5 µM (inactive); in assay [5] it was 28.2 µM (inactive). Further, the GI50 in assay [16] is 25.1 µM (inactive); in assay [6], 25.8 µM; in assay [7], 53 µM (inactive); in [8], 21.8 µM (inactive); in [9] it was 24.4 µM (inactive); in assay [10], 52.7 µM (inactive). Besides, the GI50 in [11] is 91.2 µM (inactive); in assay [12], 16.3 µM (inactive); in assay [13] it was 83 µM (inactive).
Turning to `COc1ccc(/C=C/C(=O)C(C)(C)CN2CCCCC2)cc1`, the GI50 in assay [1] was 26.2 µM (inactive); in assay [14], 7.36 µM (inactive); in assay [2] it was 18.3 µM (inactive); in assay [3], 15.6 µM (inactive); in [4], 44.7 µM (inactive); in assay [5], 24.2 µM (inactive). For the same compound, the GI50 in [6] is 16.3 µM; in assay [15], 16.9 µM (inactive); in assay [7], 17.4 µM (inactive); in [8] it was 17.7 µM (inactive); in assay [10] it was 16.2 µM (inactive); in assay [11], 16 µM (inactive). Further, the GI50 is 14.9 µM (inactive) in assay [12] and 57.7 µM (inactive) in [13].
On to `[O-]/[N+](=C\c1ccccc1)[C@H](COCc1ccccc1)c1ccccc1`, for which the GI50 was > 100 µM (inactive) in [1]; > 100 µM (inactive) in assay [3]; 25.1 µM (inactive) in assay [4]; 50.6 µM (inactive) in assay [5]; > 100 µM (inactive) in [15]; > 100 µM (inactive) in assay [7]. The GI50 in assay [8] is 24.2 µM (inactive); in [10], 40.8 µM (inactive); in assay [11], > 100 µM (inactive); in [12], > 100 µM (inactive); in [13], 59.8 µM (inactive).
In the case of `COC(=O)C1N=CSCC1(C)O` (configuration not stated), the GI50 in [1], in [14], in [2], in [3], in assay [4] and in assay [5] was > 100 µM (inactive) throughout. The GI50 in [16] was > 100 µM (inactive); in [6], more than 100 µM; in assay [15], > 100 µM (inactive); in assay [7] it was > 100 µM (inactive); in assay [8] it was > 100 µM (inactive); in assay [10], > 100 µM (inactive). In addition, the GI50 in assay [11], in assay [12] and in [13] was > 100 µM (inactive) throughout.
